Test results as given in patent publication US10143638B2, “Method of treating skin with ingenol mebutate” (LEO Laboratories Limited, priority 2009, dated 2018).

Test system: dermal fibroblasts
Assay: De novo hyaluronan molecular weight ([3H]-glucosamine incorporation, gel filtration)
Format: cell-based, human
Settings: PEP005 0.01-10 μg/ml, presence or absence of TGF-β1, day 1 and day 3
Procedure: Hyaluronan molecular weight sizing, following dermal fibroblast synthesis, was performed as previously described (Meran et al, 2008; Simpson et al, 2009). Dermal fibroblasts were seeded in 6-well tissue culture plates, in PEP005-free, Fibroblast-Serum Containing Medium (2 ml), at 1.5×10^5 cells/well. Dermal fibroblasts were maintained at 37° C., in a 5% CO2/95% air atmosphere, for 48 h, prior to washing in phosphate buffered saline (PBS, 2×2 ml) and maintenance in serum-free, Fibroblast-Serum Containing Medium (2 ml), for a further 48 h. At 48 h, the serum-free, Fibroblast-Serum Containing Medium was replenished with serum-free, Fibroblast-Serum Containing Medium (2 ml), containing 0 μg/ml, 0.01 μg/ml, 0.1 μg/ml, 1 μg/ml, 10 μg/ml or 100 μg/ml PEP005, +/−TGF-β1 (10 ng/ml) (three culture wells per PEP005 concentration), in addition to [^3H]-glucosamine (20 μCi/ml, G.E. Healthcare). The dermal fibroblasts were maintained at 37° C., in a 5% CO2/95% air atmosphere, for 24 h or 72 h. […]
Aliquots (20 μl×3) of each Extract fraction were transferred into scintillation vials, followed by the addition of 70% ethanol (600 μl) and liquid scintillant (4 ml). Scintillation vials were vortexed and [^3H]-incorporation quantified using a Packard Tri-Carb 1900CA Liquid Scintillation Analyzer (Perkin Elmer), with values obtained being expressed as disintegrations per minute (dpm). […]

## C/C=C(/C)C(=O)O[C@H]1C(C)=C[C@]23C(=O)[C@@H](C=C(CO)[C@@H](O)[C@]12O)[C@H]1[C@@H](C[C@H]3C)C1(C)C [PEP005, ingenol-3-angelate]
  molecular weight of hyaluronan synthesized: predominantly of high (>1.5×10^6 Da) and medium (<1.5×10^6-4×10^5 Da) molecular weight
